Test system: HeLa cells
Assay: Cell proliferation
Type: cell-based
Settings: tested concentrations 0 to 20 μM

## COC[C@H]1OC(=O)c2coc3c2[C@@]1(C)C1=C(C3=O)[C@@H]2CCC(=O)[C@@]2(C)C[C@H]1OC(C)=O [Wortmannin]
  cytotoxicity in HeLa cells: did not observe Wortmannin cytotoxicity
